Test results reported in paper PMC10350920, “Development of a 2,4-Diaminothiazole Series for the Treatment of Human African Trypanosomiasis Highlights the Importance of Static–Cidal Screening of Analogues” (Journal of Medicinal Chemistry, 2023).

Legend:
[1] = test system: BSF T. b. brucei “single marker” S427; test: Drug sensitivity assay with bloodstream-form T. brucei; assay type: cell-based; conditions: for EC50: mean values, number of replicates in parentheses; for reduction (loss, drop off) in potency against T. brucei relative to parent analogue: SAR comparison
Description: (§1) Drug sensitivity assays with BSF T. b. brucei “single marker” S427 and human MRC-5 fibroblasts were conducted as previously described.[43]

[2] = Mammalian cell counter screen (MRC-5); assay type: cell-based, human; conditions: human, MRC-5 fibroblasts; mean values; number of replicates in parentheses
Description: as §1

[3] = test system: human MRC-5 fibroblasts; test: Mammalian cell counter screen (MRC-5); assay type: cell-based; conditions: for SI: selectivity index (EC50 MRC5/EC50 T. brucei)
Description: as §1

[4] = Mouse liver microsomal intrinsic clearance; assay type: in vitro ADME
Description: Test compounds (0.5 μM) were incubated with female CD1 mouse liver microsomes (Xenotech LLC; 0.5 mg mL^–1 50 mM potassium phosphate buffer, pH 7.4), and the reaction started with the addition of excess NADPH (8 mg mL^–1 50 mM potassium phosphate buffer, pH 7.4). Immediately, at 0 min, and then at 3, 6, 9, 15, and 30 min, an aliquot (50 μL) of the incubation mixture was removed and mixed with acetonitrile (100 μL) to stop the reaction. The internal standard was added to all samples, the samples were centrifuged to sediment the precipitated protein, and the plates were then sealed prior to UPLC–MS/MS analysis using a Quattro Premier XE (Waters Corporation, USA). XLfit (IDBS, UK) was used to calculate the exponential decay and consequently the rate constant (k) from the ratio of the peak area of the test compound to the internal standard at each time point. The rate of intrinsic clearance (CLint) of each test compound was then calculated using the following calculation [drawing 3] where V (mL mg^–1 protein) is the incubation volume mg^–1 protein added and the microsomal protein yield is taken as 52.5 mg protein g^–1 liver. Verapamil (0.5 μM) was used as a positive control to confirm acceptable assay performance.

| Compound | EC50 ([1]; Trypanosoma brucei) | EC50 [2] | SI [3] | CLint (mouse) [4] | reduction (loss, drop off) in potency against T. brucei relative to parent analogue [1] | EC50 [1] | EC50 [3] |
| --- | --- | --- | --- | --- | --- | --- | --- |
| CCOCC(=O)c1sc(Nc2ccc(F)c(F)c2)nc1N [Compound 44, 1-(4-Amino-2-((3,4-difluorophenyl)amino)thiazol-5-yl)-2-ethoxyethanone] | 150 nM | > 50000 nM | 333 |  |  |  |  |
| Nc1nc(Nc2ccccc2)sc1C(=O)c1ccc(F)cc1 [Compound 35, (4-Amino-2-(phenylamino)thiazol-5-yl)(4-fluorophenyl)methanone] | 190 nM | > 50000 nM | >263 | 7.3 mL·min/g |  |  |  |
| Nc1nc(NC2CCCCC2)sc1C(=O)c1ccc(F)c(F)c1 [Compound 30, (4-Amino-2-(cyclohexylamino)thiazol-5-yl)(3,4-difluorophenyl)methanone] | 50 nM | 42000 nM | 840 | 12 mL·min/g |  |  |  |
| COC(C)(C)C(=O)c1sc(NC2CCCCC2)nc1N [Compound 17, 1-(4-Amino-2-(cyclohexylamino)thiazol-5-yl)-2-methoxy-2-methylpropan-1-one] | 1900 nM | > 50000 nM | >26 | 3.8 mL·min/g |  |  |  |
| O=C(c1cnc(NC2CCCCC2)s1)C1CCCCC1 [Compound 32, Cyclohexyl(2-(cyclohexylamino)thiazole-5-yl)methanone] | 18000 nM | 49000 nM | 3 | 15 mL·min/g | > 20 fold |  |  |
| Nc1nc(NC2CCCCC2)sc1C(=O)C1CCC1 [Compound 19, (4-Amino-2-(cyclohexylamino)thiazol-5-yl)cyclobutylmethanone] | 370 nM | 13000 nM |  | 21 mL·min/g |  |  |  |
| COC(C)(C)CC(=O)c1sc(Nc2ccc(F)c(F)c2)nc1N [Compound 39, 1-(4-Amino-2-((3,4-difluorophenyl)amino)thiazol-5-yl)-3-methoxy-3-methylbutan-1-one] | 210 nM | > 50000 nM | 238 | 6.1 mL·min/g |  |  |  |
| CC(C)CC(=O)c1sc(Nc2ccc(F)cc2)nc1N [Compound 36, 1-(4-Amino-2-((4-fluorophenyl)amino)thiazol-5-yl)-3-methylbutan-1-one] | 110 nM | > 50000 nM | >455 | 8.0 mL·min/g |  |  |  |
| CC(C)(F)CC(=O)c1sc(Nc2ccc(F)c(F)c2)nc1N [Compound 41, 1-(4-Amino-2-((3,4-difluorophenyl)amino)thiazol-5-yl)-3-fluoro-3-methylbutan-1-one] | 560 nM | 46000 nM | 82 |  |  |  |  |
| O=C(c1cnc(NC2CCCCC2)s1)c1c(F)cccc1F [Compound 33, (2-(Cyclohexylamino)thiazol-5-yl)(2,6-difluorophenyl)methanone] | 15000 nM | 47000 nM | 3 |  | > 20 fold |  |  |
| Nc1nc(NC2CCCCC2)sc1C(=O)c1cc(F)cc(F)c1 [Compound 31, (4-Amino-2-(cyclohexylamino)thiazol-5-yl)(3,5-difluorophenyl)methanone] | 160 nM | 3100 nM | 19 | 3.6 mL·min/g |  |  |  |
| Nc1nc(NC2CCCCC2)sc1C(=O)c1ccc(F)cc1 [Compound 22, (4-Amino-2-(cyclohexylamino)thiazol-5-yl)(4-fluorophenyl)methanone] | 50 nM | 21000 nM | 420 | 4.9 mL·min/g |  |  |  |
| CC(C)(C)OCC(=O)c1sc(Nc2ccc(F)c(F)c2)nc1N [Compound 43, 1-(4-Amino-2-((3,4-difluorophenyl)amino)thiazol-5-yl)-2-(tert-butoxy)ethanone] | 100 nM | > 50000 nM | 500 |  |  |  |  |
| Cc1ccc(C(=O)c2sc(NC3CCCCC3)nc2N)cc1 [Compound 24, (4-Amino-2-(cyclohexylamino)thiazol-5-yl)(p-tolyl)methanone] | 280 nM | > 50000 nM | >179 |  |  |  |  |
| Nc1nc(NC2CCCCC2)sc1C(=O)c1ccc(C(F)(F)F)cc1 [Compound 23, (4-Amino-2-(cyclohexylamino)thiazol-5-yl)(4-(trifluoromethyl)phenyl)methanone] | 660 nM | 37000 nM | 56 | 1.4 mL·min/g |  |  |  |
| CC(C)OCCC(=O)c1sc(Nc2ccc(F)c(F)c2)nc1N [Compound 45, 1-(4-Amino-2-((3,4-difluorophenyl)amino)thiazol-5-yl)-3-isopropoxypropan-1-one] | 2600 nM | > 50000 nM | 19 |  |  |  |  |
| Nc1nc(NC2CCCCC2)sc1C(=O)c1ccc(F)cc1F [Compound 29, (4-Amino-2-(cyclohexylamino)thiazol-5-yl)(2,4-difluorophenyl)methanone] | 50 nM | 6400 nM | 128 | 6.5 mL·min/g |  |  |  |
| Nc1nc(Nc2ccc(F)c(F)c2)sc1C(=O)COC(CF)CF [Compound 48, 1-(4-Amino-2-((3,4-difluorophenyl)amino)thiazol-5-yl)-2-((1,3-difluoropropan-2-yl)oxy)ethanone] | 50 nM | > 50000 nM | 1000 |  |  |  |  |
| Nc1nc(Nc2ccc(F)c(F)c2)sc1C(=O)COC(C(F)(F)F)C(F)(F)F [Compound 49, 1-(4-Amino-2-((3,4-diflurorophenyl)amino)thiazol-5-yl)-2-(((1,1,1,3,3,3)-hexafluoropropan-2-yl)oxy)ethanone] | 20 nM | 13000 nM | 650 |  |  |  |  |
| 1-(4-Amino-2-((3-(difluoromethoxy)phenyl)amino)thiazol-5-yl)-2-((1,1,1-trifluoropropan-2-yl)oxy)ethanone [Compound 54] |  |  | 2500 |  |  | 20 nM | > 50000 nM |
| Nc1nc(NC2CCCCC2)sc1C(=O)C1CCCCC1 [Compound 20, (4-Amino-2-(cyclohexylamino)thiazol-5-yl) (cyclohexyl)methanone] | 150 nM | 41000 nM | 273 | 8.9 mL·min/g |  |  |  |
| Nc1nc(NC2CCCCC2)sc1C(=O)c1c(Cl)cccc1Cl [Compound 21, (4-Amino-2-(cyclohexylamino)thiazol-5-yl)(2,6-dichlorophenyl)methanone] | 140 nM | 4800 nM | 34 | 4.1 mL·min/g |  |  |  |
| Nc1nc(NC2CCCCC2)sc1C(=O)c1ccccc1F [Compound 27, (4-Amino-2-(cyclohexylamino)thiazol-5-yl)(2-fluorophenyl)methanone] | 70 nM |  | 29 | 9.7 mL·min/g |  |  |  |
| Nc1nc(NC2CCCCC2)sc1C(=O)c1ccccc1C(F)(F)F [Compound 28] | 390 nM | 1900 nM | 5 | 14 mL·min/g |  |  |  |
| CC(C)(C)CC(=O)c1sc(Nc2ccc(F)c(F)c2)nc1N [Compound 40, 1-(4-Amino-2-((3,4-difluorophenyl)amino)thiazol-5-yl)-3,3-dimethylbutan-1-one] | 150 nM | > 50000 nM | >333 | 4.6 mL·min/g |  |  |  |
